Results published in patent US11214547B2, “Crystalline Eltrombopag monoethanolamine salt form D” (F.I.S.—FABBRICA ITALIANA SINTETICI S.P.A., priority 2018, dated 2022).

Columns and labels:
[1] = cited from earlier work
[2] = Preliminary stability in water at RT (slurry, XRPD); assay type: physicochemical; conditions: XRPD at 1, 3, 6 and 24 h
Protocol: A preliminary test stability study in water at RT of 4 ETP monoethanolamine salt Forms was performed in order to observed possible crystalline transitions. A sample of each crystalline form was slurried in water at RT and periodically analysed by XRPD (1, 3, 6 and 24 h) in order to detect possible crystalline transformation.

[3] = Relative thermodynamic solubility in water at RT by HPLC; assay type: physicochemical; conditions: for Intensity test average: average of solubility tests #1 and #2, water; for Intensity test average / Solubility test #1 (area counts) / Solubility test #2 (area counts): RT; for Solubility test #1 (area counts) / Solubility test #2 (area counts): water, 24 h stirring, HPLC ETP peak area of saturated solution
Protocol: This suspension was stirred 24 h at RT in order to reach the equilibrium. Then, a sample was filtered and the resulting filtrate was analysed by HPLC by duplicate. The average peak area of ETP gave a relative value of the thermodynamic solubility of each form that can be compared with each other. The solids recovered after filtration were also analysed by XRPD to check that no crystalline phase transformation occurred during the slurring.
The following HPLC conditions were used to determine the relative solubility (due to their short analysis time and good response): • Column: C18 Zorbax Eclipse (XDB), 150×4.6 mm, 5 μm • Sample concentration: Saturated water solution of the ETP monoethanolamine salt • Mobile phase: ACN:MeOH:H2O (55:35:10) at pH=6.0+/−0.2 • Temperature: 27° C. • Flow rate: 1 mL/min • UV detector wavelength: 230 nm • Injection: 5 μL • Run time: 10 min
HPLC ETP peak area in each of the different forms analysed was measured in order to establish their relative solubility. The HPLC analyses were performed by duplicate for each ETP monoethanolamine salt.

[4] = Hygroscopicity study by DVS (Dynamic Vapour Sorption); assay type: physicochemical; conditions: 25° C.
Protocol: Hygroscopicity study was determined by DVS (Dynamic Vapour Sorption) with a Q5000 TA instrument. This is a gravimetric technique that measures how much water is absorbed or desorbed by a sample at different relative humidity (RH). At each RH, the sample mass must be allowed to reach gravimetric equilibrium (or surpassed time limit) before progressing to the next humidity level. Sorption and desorption isotherms were performed at 25° C. over a range of 0-95% RH. The samples gently milled were not previously dried but they were exposed to 0% RH until a stable weight was reached before starting the DVS cycle. This equilibration step allows possible adsorbed humidity to be eliminated.

[5] = Crystalline stability of Form D under accelerated ICH guideline conditions (XRPD); assay type: physicochemical
Text: […] […] This sample was periodically analysed by XRPD in order to observe possible crystalline transformation or amorphization. Moreover, a sample of ETP monoethanolamine salt Form D stored on a XRPD silicon holder was exposed in a climatic chamber. It is worth noting that these stability conditions are harsher than standard stability conditions due to the high surface of exposition of the solid stored on the XRPD silicon holder. The samples were periodically analysed by XRPD to observe possible crystalline transformation.

crystalline stability slurried in water [2] | Intensity test average [3] | Solubility test #1 (area counts) [3] [area counts] | Solubility test #2 (area counts) [3] [area counts] | hygroscopicity ([4]; 0-95% RH) | time the crystalline form remains stable ([5]; climate chamber-75±5% RH, on XRPD sample holder) | relative solubility in water ([3]; water at RT, ranking among the 4 forms) | humidity adsorbed (water uptake) ([4]; at 95% RH) [%] | Compound | thermally stable up to ([1]; at higher temperature endothermic reaction associated with degradation) | solubility in water [1] | crystalline transformation by XRPD ([5]; 14 weeks study period)
– | – | – | – | – | – | – | – | CC1=NN(c2ccc(C)c(C)c2)C(=O)/C1=N\Nc1cccc(-c2cccc(C(=O)O)c2)c1O [Eltrombopag olamine] | about 125 °C | sparingly soluble in water | –
remained stable 24 h | 2911 | 2722 | 3100 | – | – | – | – | CC1=NN(c2ccc(C)c(C)c2)C(=O)/C1=N\Nc1cccc(-c2cccc(C(=O)O)c2)c1O [Form D1] | – | – | –
remained stable 24 h | 8066 | 7930 | 8201 | not hygroscopic up to 85% RH | at least 14 weeks | most soluble form in water at RT | – | CC1=NN(c2ccc(C)c(C)c2)C(=O)/C1=N\Nc1cccc(-c2cccc(C(=O)O)c2)c1O [Form D] | – | – | polymorphic transition, hydrate formation or amorphization was not observed
remained stable 24 h | 2867 | 3068 | 2665 | – | – | – | 0.6 | CC1=NN(c2ccc(C)c(C)c2)C(=O)/C1=N\Nc1cccc(-c2cccc(C(=O)O)c2)c1O.NCCO [Form H2] | – | – | –
